{
  "source": "BindingDB's records for doi:10.7270/Q2222S6W",
  "about": "(University of Pittsburgh, 2007)",
  "note": "pIC50: −log10 of the molar value.",
  "data": [
    {"target": "Genome polyprotein (West Nile virus, UniProt P06935)", "sequence (P06935 1371-1501 limits assumed)": "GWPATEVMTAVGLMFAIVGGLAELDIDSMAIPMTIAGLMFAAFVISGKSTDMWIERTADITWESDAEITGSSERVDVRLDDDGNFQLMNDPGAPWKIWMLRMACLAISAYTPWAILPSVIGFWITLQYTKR", "sequence (P06935 1502-2120 limits assumed)": "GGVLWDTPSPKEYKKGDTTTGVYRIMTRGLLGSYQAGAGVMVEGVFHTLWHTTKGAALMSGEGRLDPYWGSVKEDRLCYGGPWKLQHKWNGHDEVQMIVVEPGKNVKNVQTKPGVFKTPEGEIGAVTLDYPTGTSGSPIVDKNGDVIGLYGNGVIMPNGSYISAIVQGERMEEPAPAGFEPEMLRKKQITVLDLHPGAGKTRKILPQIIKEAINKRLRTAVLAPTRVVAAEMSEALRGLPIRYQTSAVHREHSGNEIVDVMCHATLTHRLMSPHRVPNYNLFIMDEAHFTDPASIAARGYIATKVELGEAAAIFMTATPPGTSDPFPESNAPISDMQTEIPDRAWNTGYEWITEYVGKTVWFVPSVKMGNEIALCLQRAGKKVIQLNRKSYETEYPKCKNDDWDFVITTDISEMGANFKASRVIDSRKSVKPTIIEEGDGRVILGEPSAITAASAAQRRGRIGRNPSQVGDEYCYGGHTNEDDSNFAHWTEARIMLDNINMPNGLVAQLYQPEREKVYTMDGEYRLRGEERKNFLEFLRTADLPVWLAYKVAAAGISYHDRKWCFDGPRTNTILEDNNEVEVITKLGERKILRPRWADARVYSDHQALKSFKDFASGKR", "assay": "West Nile NS2B-NS3 proteinase blockers – biochemical, confirmation, dose response (AID 653)", "values": [
      {"smiles": "COc1ccc(C2CC(c3cccc(C)c3)n3ncnc3N2)cc1", "note": "(stereo not drawn) [5-(4-methoxyphenyl)-7-(3-methylphenyl)-1,5,6,7-tetrahydro-[1,2,4]triazolo[1,5-a]pyrimidine]", "pIC50": "< 4.30"},
      {"smiles": "Cc1ccccc1S(=O)(=O)Cc1ccc(C(=O)NCCCOC(C)C)o1", "note": "[5-[(2-methylphenyl)sulfonylmethyl]-N-(3-propan-2-yloxypropyl)-2-furancarboxamide]", "pIC50": "< 4.30"},
      {"smiles": "C=CCC1(CN2CCCCCC2=O)C(=O)NC(=O)NC1=O", "note": "[5-[(2-oxidanylideneazepan-1-yl)methyl]-5-prop-2-enyl-1,3-diazinane-2,4,6-trione]", "pIC50": "< 4.30"},
      {"smiles": "COc1ccc(Br)cc1C=c1sc2nc(-c3ccco3)nn2c1=O", "note": "[5-[(5-bromanyl-2-methoxy-phenyl)methylidene]-2-(furan-2-yl)-[1,3]thiazolo[3,2-b][1,2,4]triazol-6-one]", "pIC50": "< 4.30"},
      {"smiles": "COC(=O)c1ccc(CSc2nnc(SCc3ccc(C(=O)OC)o3)s2)o1", "note": "[5-[[[5-[(5-carbomethoxy-2-furyl)methylthio]-1,3,4-thiadiazol-2-yl]thio]methyl]furan-2-carboxylic acid methyl ester]", "pIC50": "< 4.30"},
      {"smiles": "Nc1cc(OC(=O)c2cccs2)nn1S(=O)(=O)c1ccc(F)cc1", "note": "[5-amino-1-[(4-fluorophenyl)sulfonyl]-1H-pyrazol-3-yl thiophene-2-carboxylate]", "pIC50": 5.94},
      {"smiles": "CCOC(=O)c1c(C)n(C)c2ccc(OC)c(NC(=O)CN3CCCCC3)c12", "note": "[5-methoxy-1,2-dimethyl-4-[(2-piperidinoacetyl)amino]indole-3-carboxylic acid ethyl ester]", "pIC50": "< 4.30"},
      {"smiles": "Cn1c2ccccc2c2nn(-c3ccccc3)c(=O)cc21", "note": "[5-methyl-2-phenyl-3-pyridazino[4,3-b]indolone]", "pIC50": "< 4.30"},
      {"smiles": "COc1ccc(-c2cn3ccsc3n2)cc1", "note": "[6-(4-methoxyphenyl)imidazo[2,1-b][1,3]thiazole]", "pIC50": "< 4.30"},
      {"smiles": "COc1ccc2c3c(cccc13)NN=C2C", "note": "[6-Methoxy-3-methyl-1H-benzo[de]cinnoline]", "pIC50": 5.00},
      {"smiles": "Cc1csc2nc(CNC(=O)C3CC=CCC3C(=O)O)cn12", "note": "(stereo not drawn) [6-[(3-methylimidazo[2,1-b][1,3]thiazol-6-yl)methylcarbamoyl]cyclohex-3-ene-1-carboxylic acid]", "pIC50": "< 4.30"},
      {"smiles": "COc1cc(C2CC(C(F)(F)F)n3ncc(C(=O)O)c3N2)cc(OC)c1OC", "note": "(stereo not drawn) [7-(trifluoromethyl)-5-(3,4,5-trimethoxyphenyl)-1,5,6,7-tetrahydropyrazolo[1,5-a]pyrimidine-3-carboxylic acid]", "pIC50": "< 4.30"},
      {"smiles": "Cc1oc2c(CN(C)C)c(O)ccc2c(=O)c1-c1ccc2ccccc2n1", "note": "[8-[(dimethylamino)methyl]-2-methyl-7-oxidanyl-3-quinolin-2-yl-chromen-4-one]", "pIC50": "< 4.30"},
      {"smiles": "CN1CCN(CC(=O)N2c3ccccc3C(=O)Nc3cccnc32)CC1", "note": "[11-[(4-methylpiperazin-1-yl)acetyl]-5,11-dihydro-6H-pyrido[2,3-b][1,4]benzodiazepin-6-one]", "pIC50": "< 4.30"},
      {"smiles": "CCN1CCN(C(=O)C2c3cc(OC)c(OC)cc3C(=O)N3CCc4ccccc4C23)CC1", "note": "(stereo not drawn) [13-(4-ethylpiperazin-1-yl)carbonyl-10,11-dimethoxy-5,6,13,13a-tetrahydroisoquinolino[2,1-b]isoquinolin-8-one]", "pIC50": "< 4.30"},
      {"smiles": "COc1cc(C=CC(=O)CC(=O)C=Cc2ccc(O)c(OC)c2)ccc1O", "note": "[(1E,6E)-1,7-bis(4-hydroxy-3-methoxyphenyl)hepta-1,6-diene-3,5-dione]", "pIC50": "< 4.30"},
      {"smiles": "Cc1nn(-c2ccccc2)c2sc(C(=O)OC3CCOC3=O)cc12", "note": "(stereo not drawn) [(2-oxidanylideneoxolan-3-yl) 3-methyl-1-phenyl-thieno[2,3-c]pyrazole-5-carboxylate]", "pIC50": "< 4.30"},
      {"smiles": "CCCCc1oc2ccccc2c1C(=O)c1cc(I)c(OCCN(CC)CC)c(I)c1", "note": "[(2-{4-[(2-butyl-1-benzofuran-3-yl)carbonyl]-2,6-diiodophenoxy}ethyl)diethylamine]", "pIC50": "< 4.30"},
      {"smiles": "CN(C)/C=C1/Sc2ccccc2C1=O", "note": "[(2E)-2-(dimethylaminomethylene)benzothiophen-3-one]", "pIC50": "< 4.30"},
      {"smiles": "CCCCOCCCNC(=O)N[C@@H](CC(C)C)C(=O)O", "note": "[(2S)-2-(3-butoxypropylcarbamoylamino)-4-methyl-pentanoic acid]", "pIC50": "< 4.30"},
      {"smiles": "CNC(=O)Oc1ccc2c(c1)[C@]1(C)CCN(C)[C@@H]1N2C", "note": "[(3aS,8aR)-1,3a,8-trimethyl-1H,2H,3H,3aH,8H,8aH-pyrrolo[2,3-b]indol-5-yl N-methylcarbamate; 2-hydroxybenzoic acid]", "pIC50": "< 4.30"},
      {"smiles": "COP(=O)(OC)C(O)C(Cl)(Cl)Cl", "note": "(stereo not drawn) [(+-)-Trichlorfon]", "pIC50": "< 4.30"},
      {"smiles": "N#[N+][CH-]C(=O)OCC(N)C(=O)O", "note": "[(E)-1-[(2S)-2-amino-2-carboxy-ethoxy]-2-diazonio-ethenolate]", "pIC50": "< 4.30"},
      {"smiles": "COc1ccc(/C=C(/C#N)c2cccnc2)cc1OC", "note": "[(E)-3-(3,4-dimethoxyphenyl)-2-(3-pyridinyl)-2-propenenitrile]", "pIC50": "< 4.30"},
      {"smiles": "CCCCC[C@H](O)C=C[C@H]1C=CC(=O)[C@@H]1C/C=C\\CCCC(=O)O", "note": "[(Z)-7-[(1R,5S)-2-oxidanylidene-5-[(E,3S)-3-oxidanyloct-1-enyl]cyclopent-3-en-1-yl]hept-5-enoic acid]", "pIC50": "< 4.30"},
      {"smiles": "CN(C)c1nc(N(C)C)nc(N(C)C)n1", "note": "[ALTRETAMINE]", "pIC50": "< 4.30"},
      {"smiles": "CCCC(CCC)C(=O)OC1C[C@H]2CC[C@@H](C1)[N+]2(C)C", "note": "(stereo partly drawn) [ANISOTROPINE METHYLBROMIDE]", "pIC50": "< 4.30"},
      {"smiles": "COc1ccc(S(=O)(=O)n2nc(OC(=O)c3ccccc3)cc2N)cc1", "note": "[Benzoic acid 5-amino-1-(4-methoxy-benzenesulfonyl)-1H-pyrazol-3-yl ester]", "pIC50": 6.98},
      {"smiles": "CCn1nc(C(=O)O)c(=O)c2cc3c(cc21)OCO3", "note": "[CINOXACIN]", "pIC50": "< 4.30"},
      {"smiles": "CC[N+](C)(C)c1cccc(O)c1", "note": "[Edrophonium Chloride, 3]", "pIC50": "< 4.30"},
      {"smiles": "O=C(c1ccco1)N(CCCN1CCOCC1)c1nc(-c2ccc(Cl)cc2)cs1", "note": "[Furan-2-carboxylic acid [4-(4-chloro-phenyl)-thiazol-2-yl]-(3-morpholin-4-yl-propyl)-amide]", "pIC50": "< 4.30"},
      {"smiles": "NS(=O)(=O)c1cc2c(cc1Cl)N=CNS2(=O)=O", "note": "[MLS000028398]", "pIC50": "< 4.30"},
      {"smiles": "Cc1cccc(N(C)C(=S)Oc2ccc3ccccc3c2)c1", "note": "[MLS000028526]", "pIC50": "< 4.30"},
      {"smiles": "CC(C)(S)[C@@H](N)C(=O)O", "note": "[MLS000028669]", "pIC50": "< 4.30"},
      {"smiles": "CCC(=O)O[C@]1(C(=O)CCl)[C@@H](C)C[C@H]2[C@@H]3CCC4=CC(=O)C=C[C@]4(C)[C@@]3(F)[C@@H](O)C[C@@]21C", "note": "[MLS000028708]", "pIC50": "< 4.30"},
      {"smiles": "CCOc1ccccc1N(CC(=O)NC1CCCC1)C(=O)CCC(=O)Nc1cc(C)on1", "note": "[MLS000032086]", "pIC50": "< 4.30"},
      {"smiles": "COc1ccccc1-n1c(C)nnc1SCC(=O)Nc1cc(C)cc(C)c1", "note": "[MLS000032151]", "pIC50": "< 4.30"},
      {"smiles": "Cc1ccc(S(=O)(=O)n2nc(OC(=O)c3ccco3)cc2N)cc1", "note": "[MLS000033865]", "pIC50": 4.84},
      {"smiles": "COc1ccc(S(=O)(=O)n2nc(OC(=O)c3ccco3)cc2N)cc1", "note": "[MLS000033887]", "pIC50": 6.26},
      {"smiles": "CC(=O)Nc1nc2ccccc2n1CCOc1ccccc1Cl", "note": "[MLS000034055]", "pIC50": "< 4.30"},
      {"smiles": "Cc1ccc(OCC(=O)Nc2ccc(-c3nnc(-c4ccco4)o3)cc2)cc1", "note": "[MLS000039074]", "pIC50": "< 4.30"},
      {"smiles": "COc1ccc(C2C3=C(CC(C)(C)CC3=O)Oc3ncn4nc(-c5cccnc5)nc4c32)cc1OC", "note": "(stereo not drawn) [MLS000040750]", "pIC50": "< 4.30"},
      {"smiles": "CCn1c(SCC(=O)Nc2ccc3c(c2)c2ccccc2n3CC)nnc1-c1ccco1", "note": "[MLS000050867]", "pIC50": 4.32}
    ]}
  ]
}
